From patent US12637428B2, “Isoquinoline derivatives as SIK2 inhibitors” (Cancer Research Technology Limited, priority 2019, dated 2026)
pKi: −log10 of the molar value.

How the values were obtained:
Type in all cases: biochemical
SIK2 = target: T1, SIK2 (Homo sapiens, UniProt Q9H0K1); experiment: SIK2 kinase assay, IMAP fluorescence polarization; conditions: 50 or 100 μM ATP, average
T1 construct: purchased Life Technologies
Procedure: (§1) SIK2, SIK1, SIK3, Abl, Src and EPHA2 Kinase Assays
(§2) SIK2, SIK1, SIK3, Abl, Src and EPHA2 assays were performed using an IMAP fluorescence polarization assay format (Molecular Devices Inc.). 0.6-13 nM of each kinase (Life Technologies) was incubated for 60 min at room temperature with 100 nM of either FAM-Abltide, FAM-Srctide or FAM-HDAC protein derived peptide (synthesized by Alta Biosciences, Birmingham UK). Assays were carried out in the presence of 50 or 100 μM ATP in either 20 mM Tris buffer (pH 7.2) containing 4 mM MgCl2, 0.2% BSA and 2 mM DTT (SIK2, SIK1, SIK3, Abl, Src); or 20 mM Tris buffer (pH 8.5) containing 20 mM MgCl2, 0.5% BSA, 0.2% Triton and 5 mM DTT (EPHA2). Typically, dose response analyses were performed over concentration ranges from 0.00005-1 μM. Reactions were stopped by adding 2 assay volumes of 0.25% (v/v) IMAP binding reagent in either an 85:15 ratio (SIK2, SIK1, SIK3, Abl, EPHA2) or 30:70 ratio (Src) of IMAP binding buffers A and B (Molecular Devices). After incubation to allow the detection reagents to bind to the phosphorylated peptide, fluorescence polarization was measured on a Tecan Infinite plate reader at excitation (470 nm) and emission (530 nm) wavelengths. Inhibition was calculated using no inhibitor and no enzyme controls as 0 and 100% inhibition, respectively.
(§3) Table 3 provides details of the inhibitory constant (nM) of compounds of the invention at SIK1, SIK2 and SIK3 and other kinases.

SIK1 = target: T2, SIK1 (Homo sapiens, UniProt P57059); experiment: SIK1 kinase assay, IMAP fluorescence polarization; conditions: 50 or 100 μM ATP, average
T2 construct: purchased Life Technologies
T2 sequence (P57059 whole entry): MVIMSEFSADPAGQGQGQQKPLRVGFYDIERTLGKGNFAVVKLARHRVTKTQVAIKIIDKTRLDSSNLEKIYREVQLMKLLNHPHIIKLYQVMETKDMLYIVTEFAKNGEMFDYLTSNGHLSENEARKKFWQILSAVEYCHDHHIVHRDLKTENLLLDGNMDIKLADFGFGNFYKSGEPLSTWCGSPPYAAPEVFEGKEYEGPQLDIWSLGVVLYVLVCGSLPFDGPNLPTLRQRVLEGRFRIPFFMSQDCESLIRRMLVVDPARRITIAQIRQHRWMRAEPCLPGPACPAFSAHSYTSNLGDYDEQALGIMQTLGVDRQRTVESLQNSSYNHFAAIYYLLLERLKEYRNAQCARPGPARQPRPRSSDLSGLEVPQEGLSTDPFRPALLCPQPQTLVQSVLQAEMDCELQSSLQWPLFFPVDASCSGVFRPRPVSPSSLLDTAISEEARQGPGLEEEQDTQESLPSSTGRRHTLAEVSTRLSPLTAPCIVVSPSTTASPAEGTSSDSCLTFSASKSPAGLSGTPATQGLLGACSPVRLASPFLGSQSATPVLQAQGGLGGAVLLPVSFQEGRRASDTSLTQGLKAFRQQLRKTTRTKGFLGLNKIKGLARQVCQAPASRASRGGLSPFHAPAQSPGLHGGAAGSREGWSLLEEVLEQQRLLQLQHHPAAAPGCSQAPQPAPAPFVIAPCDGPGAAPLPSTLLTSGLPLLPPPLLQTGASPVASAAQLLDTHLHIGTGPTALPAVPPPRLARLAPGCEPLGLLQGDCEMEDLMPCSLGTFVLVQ
Procedure: as §1, §2, §3

SIK3 = target: T3, SIK3 (Homo sapiens, UniProt Q9Y2K2); experiment: SIK3 kinase assay, IMAP fluorescence polarization; conditions: 50 or 100 μM ATP, average
T3 construct: purchased Life Technologies
Procedure: as §1, §2, §3

Abl = target: T4, Abl (Homo sapiens, UniProt P00519); experiment: Abl kinase assay, IMAP fluorescence polarization; conditions: 50 or 100 μM ATP, average
T4 construct: purchased Life Technologies
T4 sequence (P00519 whole entry): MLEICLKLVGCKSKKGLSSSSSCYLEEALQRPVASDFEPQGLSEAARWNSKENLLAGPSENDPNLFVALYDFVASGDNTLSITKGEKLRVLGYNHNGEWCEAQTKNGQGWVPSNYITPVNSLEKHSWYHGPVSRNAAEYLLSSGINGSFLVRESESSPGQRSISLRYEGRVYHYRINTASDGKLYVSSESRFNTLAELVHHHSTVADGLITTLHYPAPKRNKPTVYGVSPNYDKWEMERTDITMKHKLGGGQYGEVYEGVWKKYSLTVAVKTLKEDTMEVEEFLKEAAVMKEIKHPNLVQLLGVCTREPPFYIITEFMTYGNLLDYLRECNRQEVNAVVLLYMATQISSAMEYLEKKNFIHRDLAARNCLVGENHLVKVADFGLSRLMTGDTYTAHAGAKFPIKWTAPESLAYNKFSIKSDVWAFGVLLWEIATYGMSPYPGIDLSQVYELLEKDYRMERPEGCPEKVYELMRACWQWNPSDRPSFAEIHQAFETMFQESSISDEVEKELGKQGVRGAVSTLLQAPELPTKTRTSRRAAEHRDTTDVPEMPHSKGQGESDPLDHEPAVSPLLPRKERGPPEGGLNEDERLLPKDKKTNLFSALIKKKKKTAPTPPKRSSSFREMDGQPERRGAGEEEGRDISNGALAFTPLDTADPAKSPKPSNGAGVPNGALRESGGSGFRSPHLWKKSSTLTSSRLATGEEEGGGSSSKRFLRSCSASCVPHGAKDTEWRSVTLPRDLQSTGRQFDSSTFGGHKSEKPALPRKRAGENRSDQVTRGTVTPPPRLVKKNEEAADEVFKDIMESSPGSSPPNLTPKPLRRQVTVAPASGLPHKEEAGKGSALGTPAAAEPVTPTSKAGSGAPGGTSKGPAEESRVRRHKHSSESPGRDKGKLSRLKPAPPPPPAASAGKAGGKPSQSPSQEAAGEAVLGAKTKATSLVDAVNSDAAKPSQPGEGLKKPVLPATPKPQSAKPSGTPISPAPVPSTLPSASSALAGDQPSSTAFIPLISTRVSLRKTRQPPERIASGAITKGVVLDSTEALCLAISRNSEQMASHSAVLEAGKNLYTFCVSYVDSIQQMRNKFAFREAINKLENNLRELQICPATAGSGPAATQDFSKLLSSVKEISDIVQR
Procedure: as §1, §2, §3

Src = target: T5, Src (Homo sapiens, UniProt P12931); experiment: Src kinase assay, IMAP fluorescence polarization; conditions: 50 or 100 μM ATP, average
T5 construct: purchased Life Technologies
T5 sequence (P12931 whole entry): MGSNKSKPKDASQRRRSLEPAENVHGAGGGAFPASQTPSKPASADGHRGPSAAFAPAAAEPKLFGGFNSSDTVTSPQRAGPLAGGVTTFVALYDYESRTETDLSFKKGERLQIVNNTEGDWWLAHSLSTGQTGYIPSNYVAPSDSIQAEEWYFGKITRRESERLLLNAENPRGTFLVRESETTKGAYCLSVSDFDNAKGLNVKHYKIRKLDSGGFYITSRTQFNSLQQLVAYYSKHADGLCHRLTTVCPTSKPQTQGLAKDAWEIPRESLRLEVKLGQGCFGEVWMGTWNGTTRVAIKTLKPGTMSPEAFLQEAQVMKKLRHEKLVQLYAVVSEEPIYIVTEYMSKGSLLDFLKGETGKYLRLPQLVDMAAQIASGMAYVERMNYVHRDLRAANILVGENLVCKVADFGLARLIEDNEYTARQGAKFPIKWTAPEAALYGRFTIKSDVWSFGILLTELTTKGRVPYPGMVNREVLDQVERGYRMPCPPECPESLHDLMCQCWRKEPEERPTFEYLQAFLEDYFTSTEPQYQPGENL
Procedure: as §1, §2, §3

EPHA2 = target: T6, EPHA2 (Homo sapiens, UniProt P29317); experiment: EPHA2 kinase assay, IMAP fluorescence polarization; conditions: 50 or 100 μM ATP, Tris pH 8.5, average
T6 construct: purchased Life Technologies
T6 sequence (P29317 24-976): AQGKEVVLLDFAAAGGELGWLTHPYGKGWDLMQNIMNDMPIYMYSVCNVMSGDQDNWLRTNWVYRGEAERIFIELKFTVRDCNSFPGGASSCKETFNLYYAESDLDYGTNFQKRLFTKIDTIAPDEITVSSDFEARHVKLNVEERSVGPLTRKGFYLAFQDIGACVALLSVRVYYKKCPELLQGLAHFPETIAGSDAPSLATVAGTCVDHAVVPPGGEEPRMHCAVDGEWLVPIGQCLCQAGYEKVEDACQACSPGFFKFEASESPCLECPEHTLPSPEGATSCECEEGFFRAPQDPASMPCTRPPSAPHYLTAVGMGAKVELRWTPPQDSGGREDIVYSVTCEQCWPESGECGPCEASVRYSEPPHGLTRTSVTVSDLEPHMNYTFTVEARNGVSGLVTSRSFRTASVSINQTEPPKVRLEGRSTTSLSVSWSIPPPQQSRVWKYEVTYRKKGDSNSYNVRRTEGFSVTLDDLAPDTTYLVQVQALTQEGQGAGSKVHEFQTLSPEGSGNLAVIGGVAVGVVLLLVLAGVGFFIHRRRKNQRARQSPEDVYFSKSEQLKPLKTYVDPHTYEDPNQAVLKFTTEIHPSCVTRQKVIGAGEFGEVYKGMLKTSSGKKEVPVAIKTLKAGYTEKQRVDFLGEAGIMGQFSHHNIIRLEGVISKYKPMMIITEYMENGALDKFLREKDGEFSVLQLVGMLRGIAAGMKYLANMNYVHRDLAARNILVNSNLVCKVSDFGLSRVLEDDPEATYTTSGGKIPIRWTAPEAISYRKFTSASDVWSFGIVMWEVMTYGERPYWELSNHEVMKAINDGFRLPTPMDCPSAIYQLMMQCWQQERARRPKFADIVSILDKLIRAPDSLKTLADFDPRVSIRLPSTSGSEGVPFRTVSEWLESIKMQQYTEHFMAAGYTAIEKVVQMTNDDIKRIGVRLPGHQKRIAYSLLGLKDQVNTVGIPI
Procedure: as §1, §2, §3

T1 sequence (Q9H0K1 whole entry): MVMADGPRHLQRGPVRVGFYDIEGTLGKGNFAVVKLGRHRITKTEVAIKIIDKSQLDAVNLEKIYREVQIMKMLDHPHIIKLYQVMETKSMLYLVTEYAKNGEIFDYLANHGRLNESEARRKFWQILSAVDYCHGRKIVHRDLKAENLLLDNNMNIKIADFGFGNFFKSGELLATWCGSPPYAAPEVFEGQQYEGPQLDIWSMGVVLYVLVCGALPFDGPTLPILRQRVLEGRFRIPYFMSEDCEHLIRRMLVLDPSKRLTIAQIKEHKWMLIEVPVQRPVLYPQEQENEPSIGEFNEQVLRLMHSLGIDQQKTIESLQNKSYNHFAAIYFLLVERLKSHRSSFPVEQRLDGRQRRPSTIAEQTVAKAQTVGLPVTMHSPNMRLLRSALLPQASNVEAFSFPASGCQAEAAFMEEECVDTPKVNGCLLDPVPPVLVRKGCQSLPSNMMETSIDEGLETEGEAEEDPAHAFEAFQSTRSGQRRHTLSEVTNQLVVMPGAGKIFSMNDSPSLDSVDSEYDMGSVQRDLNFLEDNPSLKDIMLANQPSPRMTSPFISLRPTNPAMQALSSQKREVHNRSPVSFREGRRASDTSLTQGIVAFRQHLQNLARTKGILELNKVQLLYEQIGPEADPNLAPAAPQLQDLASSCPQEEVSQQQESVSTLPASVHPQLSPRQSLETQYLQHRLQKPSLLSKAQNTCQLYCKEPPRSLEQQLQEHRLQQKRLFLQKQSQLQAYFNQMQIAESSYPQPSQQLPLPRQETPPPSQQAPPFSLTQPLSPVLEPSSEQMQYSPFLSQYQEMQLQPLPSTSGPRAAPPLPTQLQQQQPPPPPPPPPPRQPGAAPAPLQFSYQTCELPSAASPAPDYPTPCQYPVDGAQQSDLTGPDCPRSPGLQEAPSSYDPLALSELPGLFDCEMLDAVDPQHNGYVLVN

Structure (SMILES) | pKi (SIK2) | pKi (SIK1) | pKi (SIK3) | pKi (Abl) | pKi (Src) | pKi (EPHA2)
Cc1cccc(Cl)c1-c1cc(NC2CNC2)c2cc(N)ncc2c1 [Example 31, N5-(azetidin-3-yl)-7-(2-chloro-6-methyl-phenyl)isoquinoline-3,5-diamine] | 9.01 | 8.59 | 8.02 | 6.74 | 6.50 | < 6.00
Cc1cccc(Cl)c1-c1ccc2c(C(=O)N[C@@H]3CCNC3)c(N)ncc2c1 [Example 42, 3-amino-7-(2-chloro-6-methyl-phenyl)-N-[(3R)-pyrrolidin-3-yl]isoquinoline-4-carboxamide] | 8.18 | 7.77 | 7.00 | 6.47 | 6.70 | 6.76
Cc1cccc(F)c1-c1cc(NC(=O)C2CCNCC2)c2cc(N)ncc2c1 [Example 44, N-[3-Amino-7-(2-fluoro-6-methyl-phenyl)-5-isoquinolyl]piperidine-4-carboxamide] | 8.23 | 7.81 | 7.43 | 7.07 | 6.54 | 6.19
Cc1cccc(F)c1-c1cc(NC(=O)C2CNC2)c2cc(N)ncc2c1 [Example 45, N-[3-amino-7-(2-fluoro-6-methyl-phenyl)-5-isoquinolyl] azetidine-3-carboxamide] | 8.26 | 7.75 | 7.45 | 7.08 | 6.05 | 6.03
Cc1cccc(F)c1-c1cc(OC2CCNCC2)c2cc(N)ncc2c1 [Example 46, 7-(2-Fluoro-6-methyl-phenyl)-5-(4-piperidyloxy)isoquinolin-3-amine] | 10.69 | 9.72 | 9.90 | 8.44 | 7.02 | 7.41
Cc1cccc(F)c1-c1cc(OC2CNC2)c2cc(N)ncc2c1 [Example 47, 5-(azetidin-3-yloxy)-7-(2-fluoro-6-methyl-phenyl)isoquinolin-3-amine] | 9.77 | 9.00 | 8.68 | 7.87 | 6.14 | 5.97
Cc1cccc(F)c1-c1cc(O[C@@H]2CCNC2)c2cc(N)ncc2c1 [Example 48, 7-(2-fluoro-6-methyl-phenyl)-5-[(3R)-pyrrolidin-3-yl]oxy-isoquinolin-3-amine] | 10.05 | 9.47 | 9.53 | 7.65 | 6.49 | 6.64
Cc1cccc(F)c1-c1cc(NC2CCNCC2)c2ccncc2c1 [Example 49, 7-(2-Fluoro-6-methyl-phenyl)-N-(4-piperidyl)isoquinolin-5-amine] | 9.94 | 9.30 | 9.11 | < 6.00 | 6.66 | 6.76
Cc1cccc(Cl)c1-c1cc(NC2CCNCC2)c2ccncc2c1 [Example 50, 7-(2-chloro-6-methyl-phenyl)-N-(4-piperidyl) isoquinolin-5-amine] | 9.01 | 8.90 | 8.49 | 7.18 | 7.01 | 7.72
Cc1cccc(F)c1-c1cc(NC2CNC2)c2ccncc2c1 [Example 51, N-(azetidin-3-yl)-7-(2-fluoro-6-methyl-phenyl)isoquinolin-5-amine] | 9.27 | 8.55 | 8.50 | 7.60 | 6.66 | 6.62
Cc1cccc(F)c1-c1cc(C(=O)NC2CCNCC2)c2cc(N)ncc2c1 [Example 52, 3-Amino-7-(2-fluoro-6-methyl-phenyl)-N-(4-piperidyl)isoquinoline-5-carboxamide] | 8.51 | 8.26 | 7.94 | 7.92 | 7.22 | 7.62
Cc1cccc(F)c1-c1cc(C(=O)NC2CCNC2)c2cc(N)ncc2c1 (stereo not drawn) [Example 53, 3-amino-7-(2-fluoro-6-methyl-phenyl)-N-pyrrolidin-3-yl-isoquinoline-5-carboxamide] | 5.56 | 4.89 | < 4.00 | 5.26 | < 4.00 | < 4.00
Cc1cccc(F)c1-c1cc(NC2CCN(C)CC2)c2cc(N)ncc2c1 [Example 54, 7-(2-Fluoro-6-methyl-phenyl)-N5-(1-methyl-4-piperidyl)isoquinoline-3,5-diamine] | 10.33 | 9.38 | 9.05 | 7.79 | 6.99 | 6.71
Cc1cccc(F)c1-c1cc(NC[C@@H]2CCCN2C)c2cc(N)ncc2c1 [Example 55, 7-(2-fluoro-6-methyl-phenyl)-N5-[[(2S)-1-methylpyrrolidin-2-yl]methyl] isoquinoline-3,5-diamine] | 9.66 | 9.02 | 8.41 | 8.04 | 7.24 | 6.74
Cc1cccc(F)c1-c1cc(NC[C@H]2CCCCN2C)c2cc(N)ncc2c1 [Example 56, 7-(2-fluoro-6-methyl-phenyl)-N5-[[(2R)-1-methyl-2-piperidyl]methyl] isoquinoline-3,5-diamine] | 9.24 | 8.98 | 8.20 | 7.32 | 6.64 | 6.62
Cc1cccc(F)c1-c1cc(N2CCC(N(C)C)CC2)c2cc(N)ncc2c1 [Example 57, 5-[4-(dimethylamino)-1-piperidyl]-7-(2-fluoro-6-methyl-phenyl)isoquinolin-3-amine] | 9.83 | 8.95 | 8.61 | 7.22 | 6.52 | 6.82
Cc1cccc(F)c1-c1cc(N2CC[C@@H](N(C)C)C2)c2cc(N)ncc2c1 [Example 58, 5-[(3R)-3-(dimethylamino)pyrrolidin-1-yl]-7-(2-fluoro-6-methyl-phenyl)isoquinolin-3-amine] | 8.96 | 8.27 | 8.06 | 6.97 | 5.85 | < 6.00
Cc1cccc(F)c1-c1cc(N2CC[C@H](N(C)C)C2)c2cc(N)ncc2c1 [Example 59, 5-[(3S)-3-(dimethylamino)pyrrolidin-1-yl]-7-(2-fluoro-6-methyl-phenyl)isoquinolin-3-amine] | 8.54 | 7.82 | 7.56 | 6.68 | 5.66 | < 6.00
Cc1cccc(F)c1-c1cc(N2CCC[C@H](CN(C)C)C2)c2cc(N)ncc2c1 [Example 60, 5-[(3R)-3-[(dimethylamino)methyl]-1-piperidyl]-7-(2-fluoro-6-methyl-phenyl)isoquinolin-3-amine] | 8.84 | 8.10 | 7.37 | 6.65 | 6.10 | < 6.00
Cc1cccc(F)c1-c1cc(N2CCC[C@@H](CN(C)C)C2)c2cc(N)ncc2c1 [Example 61, 5-[(3S)-3-[(dimethylamino)methyl]-1-piperidyl]-7-(2-fluoro-6-methyl-phenyl)isoquinolin-3-amine] | 8.97 | 8.49 | 7.40 | 7.56 | 6.65 | 6.70
Cc1cccc(Cl)c1-c1cc(NC2CCN(C)CC2)c2cc(N)ncc2c1 [Example 62, 7-(2-Chloro-6-methyl-phenyl)-N5-(1-methyl-4-piperidyl)isoquinoline-3,5-diamine] | 9.87 | 9.31 | 8.53 | 6.68 | 6.51 | 6.70
Cc1cccc(Cl)c1-c1cc(NC2CN(C)C2)c2cc(N)ncc2c1 [Example 63, 7-(2-chloro-6-methyl-phenyl)-N5-(1-methylazetidin-3-yl)isoquinoline-3,5-diamine] | 9.00 | 8.70 | 8.00 | 6.98 | 6.82 | 6.66
Cc1cccc(F)c1-c1cc(NC2CN(C)C2)c2ccncc2c1 [Example 65, 7-(2-Fluoro-6-methyl-phenyl)-N-(1-methylazetidin-3-yl)isoquinolin-5-amine] | 9.15 | 8.43 | 8.34 | 7.44 | 6.55 | 6.58
Cc1cccc(Cl)c1-c1cc(NC2CCN(C)CC2)c2ccncc2c1 [Example 66, 7-(2-chloro-6-methyl-phenyl)-N-(1-methyl-4-piperidyl)isoquinolin-5-amine] | 9.19 | 9.28 | 8.94 | 7.23 | 6.98 | 7.26
